Our source for the KL values is ChEMBL document CHEMBL1125386, “Small atrial natriuretic peptide analogues: design, synthesis, and structural requirements for guanylate cyclase activation” (J Med Chem, 1992).

The structures appear in SMILES notation.

This assay has as its system Atrial natriuretic peptide receptor 1 (Oryctolagus cuniculus). The assay is described as follows: Binding affinity towards the low-affinity site atrionatriuretic peptide receptor 1 of rabbit adrenal membrane.
`CC[C@H](C)[C@@H]1NC(=O)[C@@H](CCCN=C(N)N)NC(=O)CNC(=O)CNC(=O)[C@@H](Cc2ccccc2)NC(=O)C(C)NC(=O)[C@H](N)CSSC[C@H](C(=O)N[C@H](Cc2ccccc2)C(=O)N[C@H](CCCN=C(N)N)C(=O)O)NC(=O)[C@@H]([C@@H](C)CC)NC(=O)[C@H](CCCN=C(N)N)NC(=O)[C@@H](CC(=O)O)NC1=O` (stereo in doubt): the KL came out at 2700 nM.

`CC[C@H](C)[C@@H]1NC(=O)[C@@H](CCCN=C(N)N)NC(=O)CNC(=O)CNC(=O)[C@@H](Cc2ccccc2)NC(=O)[C@H](NC(=O)[C@@H](CO)NC(=O)[C@H](N)CO)CSSC[C@H](C(=O)O)NC(=O)[C@@H](CCCN=C(N)N)NC(=O)[C@H](Cc2ccccc2)NC(=O)[C@@H]([C@@H](C)CC)NC(=O)[C@H](CCCN=C(N)N)NC(=O)[C@@H](CC(=O)O)NC1=O` came in with a KL of 790 nM.

In turn, `CC[C@H](C)[C@@H]1NC(=O)[C@@H](CCCN=C(N)N)NC(=O)CNC(=O)CNC(=O)[C@@H](Cc2ccccc2)NC(=O)[C@H](C2CCCCC2)NC(=O)[C@H](NC(=O)[C@H](CO)NC(=O)[C@@H](N)CO)CSSC[C@H](C(=O)N[C@H](Cc2ccccc2)C(=O)N[C@H](CCCN=C(N)N)C(=O)O)NC(=O)[C@@H]([C@@H](C)CC)NC(=O)[C@H](CCCN=C(N)N)NC(=O)[C@@H](CC(=O)O)NC1=O` yielded a KL of 180 nM.

On to `CC[C@H](C)[C@@H]1NC(=O)[C@H](CCCN=C(N)N)NC(=O)[C@@H](CC(=O)O)NC(=O)[C@H]([C@@H](C)CC)NC(=O)[C@@H](CCCN=C(N)N)NC(=O)CNC(=O)CNC(=O)[C@@H](Cc2ccccc2)NC(=O)C(C)NC(=O)[C@@H](NC(=O)[C@H](CO)NC(=O)[C@@H](N)CO)CSSC[C@@H](C(=O)N2C[C@@H](C(=O)N[C@H](CCCN=C(N)N)C(=O)O)Cc3ccccc32)NC1=O` (stereo in doubt), for which the KL is 540 nM.

For `CC[C@H](C)[C@@H]1NC(=O)[C@@H](CCCN=C(N)N)NC(=O)CNC(=O)CNC(=O)[C@@H](Cc2ccccc2)NC(=O)C(C)NC(=O)[C@H](NC(=O)[C@@H](N)CCCN=C(N)N)CSSC[C@H](C(=O)N[C@H](Cc2ccccc2)C(=O)N[C@H](CCCN=C(N)N)C(=O)O)NC(=O)[C@@H]([C@@H](C)CC)NC(=O)[C@H](CCCN=C(N)N)NC(=O)[C@@H](CC(=O)O)NC1=O` (stereo in doubt), the KL is 240 nM.

Take `CC[C@H](C)[C@@H]1NC(=O)[C@@H](CCCN=C(N)N)NC(=O)CNC(=O)CNC(=O)[C@@H](Cc2ccccc2)NC(=O)C(C)NC(=O)[C@H](NC(=O)CCCCN)CSSC[C@H](C(=O)N[C@H](Cc2ccccc2)C(=O)N[C@H](CCCN=C(N)N)C(=O)O)NC(=O)[C@@H]([C@@H](C)CC)NC(=O)[C@H](CCCN=C(N)N)NC(=O)[C@@H](CC(=O)O)NC1=O` (stereo in doubt): the KL worked out at 280 nM.

For `CC[C@H](C)[C@@H]1NC(=O)[C@@H](CCCCN)NC(=O)CNC(=O)CNC(=O)[C@@H](C2CCCCC2)NC(=O)CCSSC[C@H](C(N)=O)NC(=O)[C@@H](CCCN=C(N)N)NC(=O)[C@H](Cc2ccccc2)NC(=O)[C@@H]([C@@H](C)CC)NC(=O)[C@H](CCCN=C(N)N)NC(=O)[C@@H](CC(=O)O)NC1=O`, the KL came to 150 nM.

`CC[C@H](C)[C@@H]1NC(=O)[C@@H](CCCN=C(N)N)NC(=O)[C@@H](C)NC(=O)[C@@H](C)NC(=O)[C@@H](C2CCCCC2)NC(=O)[C@H](NC(=O)[C@H](N)CCCN=C(N)N)CSSC[C@H](C(N)=O)NC(=O)[C@@H](CCCN=C(N)N)NC(=O)[C@H](Cc2ccccc2)NC(=O)[C@@H]([C@@H](C)CC)NC(=O)[C@H](CCCN=C(N)N)NC(=O)[C@@H](CC(=O)O)NC1=O` returned a KL of 200 nM.

Compound `CC[C@H](C)[C@@H]1NC(=O)[C@@H](CCCN=C(N)N)NC(=O)CNC(=O)CNC(=O)[C@@H](Cc2ccccc2)NC(=O)[C@@H](C)NC(=O)[C@H](NC(=O)[C@H](CO)NC(=O)[C@@H](N)CO)CSSC[C@H](C(=O)N[C@H](Cc2ccccc2)C(=O)N[C@H](CCCN=C(N)N)C(=O)O)NC(=O)[C@@H]([C@@H](C)CC)NC(=O)[C@H](C)NC(=O)[C@@H](CC(=O)O)NC1=O` had a KL of 7100 nM.

Consider `CC[C@H](C)[C@@H]1NC(=O)[C@@H](CCCN=C(N)N)NC(=O)CNC(=O)CNC(=O)[C@@H](C2CCCCC2)NC(=O)[C@H](N)CSSC[C@H](C(N)=O)NC(=O)[C@@H](CCCN=C(N)N)NC(=O)[C@H](Cc2ccccc2)NC(=O)[C@@H]([C@@H](C)CC)NC(=O)[C@H](C)NC(=O)[C@@H](CC(=O)O)NC1=O`, for which the KL is 8900 nM.

On to `CC[C@H](C)[C@@H]1NC(=O)[C@@H](CCCN=C(N)N)NC(=O)[C@H](CC(=O)O)NC(=O)[C@@H]([C@@H](C)CC)NC(=O)[C@H](CCCN=C(N)N)NC(=O)CNC(=O)CNC(=O)[C@H](Cc2ccccc2)NC(=O)CN(C)C(=O)[C@@H](NC(=O)[C@@H](CO)NC(=O)[C@H](N)CO)CSSC[C@@H](C(=O)N[C@H](Cc2ccccc2)C(=O)N[C@H](CCCN=C(N)N)C(=O)O)NC1=O`, for which the KL amounted to 410 nM.

For the compound `CC[C@H](C)[C@@H]1NC(=O)[C@@H](CCCN=C(N)N)NC(=O)C2CCC(CC2)NC(=O)C2CCC(CC2)NC(=O)[C@@H](Cc2ccccc2)NC(=O)C(C)NC(=O)[C@H](NC(=O)[C@H](CO)NC(=O)[C@@H](N)CO)CSSC[C@H](C(=O)N[C@H](Cc2ccccc2)C(=O)N[C@H](CCCN=C(N)N)C(=O)O)NC(=O)[C@@H]([C@@H](C)CC)NC(=O)[C@H](CCCN=C(N)N)NC(=O)[C@@H](CC(=O)O)NC1=O` (stereo in doubt), the KL turned out to be 1000 nM.

As for `CC[C@H](C)[C@@H]1NC(=O)[C@@H](CCCN=C(N)N)NC(=O)CNC(=O)CNC(=O)[C@@H](Cc2ccccc2)NC(=O)[C@H](NC(=O)[C@H](CO)NC(=O)[C@@H](N)CO)CSSC[C@H](C(=O)N[C@H](Cc2ccccc2)C(=O)N[C@H](CCCN=C(N)N)C(=O)O)NC(=O)[C@@H]([C@@H](C)CC)NC(=O)[C@H](CCCN=C(N)N)NC(=O)[C@@H](CC(=O)O)NC1=O`, the KL was found to be 4400 nM.

With `CC[C@H](C)[C@@H]1NC(=O)[C@@H](CCCN=C(N)N)NC(=O)CNC(=O)CNC(=O)[C@@H](Cc2ccccc2)NC(=O)C(C)NC(=O)[C@H](NC(=O)[C@H](CO)NC(=O)[C@@H](N)CO)CSSC[C@H](C(=O)N2CC(C(=O)N[C@H](CCCN=C(N)N)C(=O)O)Cc3ccccc32)NC(=O)[C@@H]([C@@H](C)CC)NC(=O)[C@H](CCCN=C(N)N)NC(=O)[C@@H](CC(=O)O)NC1=O` (stereo in doubt), the KL came out at 960 nM.

In turn, `CC[C@H](C)[C@@H]1NC(=O)[C@@H](CCCN=C(N)N)NC(=O)CNC(=O)CNC(=O)[C@@H](C2CCCCC2)NC(=O)[C@H](NC(=O)[C@H](N)CCCN=C(N)N)CSSC[C@H](C(=O)O)NC(=O)[C@@H](CCCN=C(N)N)NC(=O)[C@H](Cc2ccccc2)NC(=O)[C@@H]([C@@H](C)CC)NC(=O)[C@H](CCCN=C(N)N)NC(=O)[C@@H](CC(=O)O)NC1=O` displayed a KL of 460 nM.

Turning to `CC[C@H](C)[C@@H]1NC(=O)[C@@H](CCCN=C(N)N)NC(=O)CNC(=O)CNC(=O)[C@@H](Cc2ccccc2)NC(=O)CNC(=O)[C@H](NC(=O)[C@H](CO)NC(=O)[C@@H](N)CO)CSSC[C@H](C(=O)N2CCC[C@@H]2C(=O)N[C@H](CCCN=C(N)N)C(=O)O)NC(=O)[C@@H]([C@@H](C)CC)NC(=O)[C@H](CCCN=C(N)N)NC(=O)[C@@H](CC(=O)O)NC1=O`, the KL worked out at 440 nM.

`CC[C@H](C)[C@@H]1NC(=O)[C@@H](CCCN=C(N)N)NC(=O)CNC(=O)CNC(=O)[C@@H](Cc2ccccc2)NC(=O)CCNC(=O)[C@H](NC(=O)[C@H](CO)NC(=O)[C@@H](N)CO)CSSC[C@H](C(=O)N[C@H](Cc2ccccc2)C(=O)N[C@H](CCCN=C(N)N)C(=O)O)NC(=O)[C@@H]([C@@H](C)CC)NC(=O)[C@H](CCCN=C(N)N)NC(=O)[C@@H](CC(=O)O)NC1=O` registered a KL of 6500 nM.
